This passage reports IC50 results from US9040691B2, “Hydroxymethylaryl-substituted pyrrolotriazines as ALK1 inhibitors” (BAYER INTELLECTUAL PROPERTY GMBH, priority 2011, dated 2015).

Assay [1] deals with hSmad7 mRNA in BMP9-stimulated HUVEC. Nature of the assay: Smad7 target gene induction: HUVEC cell assay and TaqMan expression analysis. In kind it is cell-based, human. To be noted: Homo sapiens, 3 h, 1 ng/ml BMP9 for 3 h, Smad7 mRNA by TaqMan. The procedure: B-2b. Smad7 Target Gene Induction: HUVEC Cell Assay and TaqMan Expression Analysis
The in vitro potency of ALK1 inhibitors was tested in a cell-based assay. Bone morphogenetic protein 9 (BMP9) induces Smad7 mRNA expression in human vascular endothelial cells (HUVEC) via activation of ALK1.
1.5×10^4 passage 2 HUVECs (Lonza, Basel, Switzerland) per well were seeded in a 96-well plate in EBM-2 medium containing EGM-2 additives and growth factors (Lonza, CC-3156 and CC-4176). After 4 h, the medium was changed to EBM-2 with 0.2% fetal calf serum (FCS) and the cells were starved for 20 h in a humidified incubator at 37° C., 5% CO2. Test compounds were added at 11 different concentrations between 0 and 10 000 nM one hour prior to stimulation of the cells for 3 h with recombinant human BMP9 protein at 1 ng/ml (dissolved in 4 mM hydrochloric acid, 0.1% BSA at 10 μg/ml; R&D Systems, Minneapolis, Minn., USA, 3209BP). Medium was removed, and the cells were lysed in 100 μl RLT buffer (Qiagen, Hilden, Germany). RNA was isolated using the Qiagen RNeasy 96 Kit (order-No. 74182) according to manufacturer's instructions and eluted from the columns with 65 μl RNAse-free water. Reverse transcription for quantitative RT-PCR was carried out with the Omniscript Kit (Qiagen, 205113) in RNAse-free 96-well round-bottom plates. Per well, 6.8 μl of a reaction master mix containing 2 μl 10×RT-buffer, 2 μl dNTPs (5 mM each), 1.6 μl random primer N6 (125 μM), 0.25 μl Rnase Out (40 U/μl) and 1 μl Omniscript Reverse Transcriptase were added. After addition of 13.2 μl of the RNA/water mixture, plate contents were mixed, incubated for 1 h at 37° C. and the total volume adjusted to 100 μl in each well by addition of 80 μl RNAse-free water.
The quantification of human Smad7 mRNA was carried out on a TaqMan using the Eurogentec qPCR Mastermix Plus (RT-QP2X-03-075+; Cologne, Germany) and employing human L32 as housekeeping reference mRNA. Per qPCR reaction, 2.8 μl primer mix, 10 μl master mix, 2.2 μl water and 5 μl cDNA were added. Thermal cycling parameters were 2 min at 50° C., followed by 10 min at 95° C., followed by 40 cycles of melting at 95° C. for 15 sec and annealing/extending at 60° C. for 1 min.
Smad7 mRNA levels induced by 1 ng/ml BMP9 without the addition of any inhibitor were set at 100% induction, and % inhibition was calculated for each test compound with this value. For each test compound, every value was determined in quadruplicate. The IC50 values were determined using Microsoft Excel. The fitting method used was a weighted, unconstrained ML-fit.
A general note: Quantitative PCR measures a nucleic acid by following its amplification.

The target in assay [2] is ALK1 kinase (Homo sapiens (Human), UniProt P37023). Nature of the assay: In vitro enzyme inhibition using scintillation of incorporated radio label (flashplate assay). In kind it is biochemical. Particulars: biotinylated α-casein, 33P-ATP, 500 nM ATP.

Molecules are shown by their SMILES.

Sequence of ALK1 kinase (P37023 22-503): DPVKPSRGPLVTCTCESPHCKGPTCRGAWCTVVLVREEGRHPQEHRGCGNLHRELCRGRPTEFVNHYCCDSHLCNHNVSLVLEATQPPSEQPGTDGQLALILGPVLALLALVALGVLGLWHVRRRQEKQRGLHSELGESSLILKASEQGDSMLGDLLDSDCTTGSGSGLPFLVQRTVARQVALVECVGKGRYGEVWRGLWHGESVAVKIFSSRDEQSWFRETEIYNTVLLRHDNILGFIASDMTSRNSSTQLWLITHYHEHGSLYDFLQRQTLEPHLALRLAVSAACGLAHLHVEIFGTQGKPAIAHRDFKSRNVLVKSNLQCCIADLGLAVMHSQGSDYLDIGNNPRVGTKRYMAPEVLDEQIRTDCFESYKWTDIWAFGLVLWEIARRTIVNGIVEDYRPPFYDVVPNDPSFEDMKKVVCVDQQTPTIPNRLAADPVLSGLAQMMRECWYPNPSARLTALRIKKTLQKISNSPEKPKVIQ

As for `Nc1ncnn2c(CN3CCOCC3)cc(-c3ccc(CO)c(F)c3)c12` [Example 21, {4-[4-Amino-7-(morpholin-4-ylmethyl)pyrrolo[2,1-f][1,2,4]triazin-5-yl]-2-fluorophenyl}methanol], the IC50 came to 790 nM in assay [1] and 25 nM in assay [2].

`Nc1ncnn2c(CN3CCOCC3)cc(-c3ccc(CO)c(Cl)c3)c12` [Example 22, {4-[4-Amino-7-(morpholin-4-ylmethyl)pyrrolo[2,1-f][1,2,4]triazin-5-yl]-2-chlorophenyl}methanol]: the IC50 in assay [1] stood at 3100 nM; in assay [2] it was 17 nM.

`CCCc1cc(-c2cc(F)c(CO)c(F)c2)c2c(N)ncnn12` [Example 2, [4-(4-Amino-7-propylpyrrolo[2,1-f][1,2,4]triazin-5-yl)-2,6-difluorophenyl]methanol]: the IC50 in assay [1] was found to be 160 nM; in assay [2] it was 2.8 nM.

`CCCc1cc(-c2ccc(CO)cc2)c2c(N)ncnn12` [Example 1, [4-(4-Amino-7-propylpyrrolo[2,1-f][1,2,4]triazin-5-yl)phenyl]methanol]: the figures for the IC50 in assay [1] and in assay [2] were 94 nM and 2 nM, respectively.

In the case of `Nc1ncnn2c(CN3CCOCC3)cc(-c3cc(F)c(CO)c(F)c3)c12` [Example 20, {4-[4-Amino-7-(morpholin-4-ylmethyl)pyrrolo[2,1-f][1,2,4]triazin-5-yl]-2,6-difluorophenyl}-methanol], the IC50 in assay [1] is 5900 nM; in assay [2] it was 30 nM.

Regarding `Nc1nc(-c2cc(-c3ccc(CO)cc3)c3c(N)ncnn23)cs1` [Example 17, {4-[4-Amino-7-(2-amino-1,3-thiazol-4-yl)pyrrolo[2,1-f][1,2,4]triazin-5-yl]phenyl}methanol], the IC50 in assay [1] came to 290 nM; in assay [2], 2 nM.

With `Nc1ncnn2c(C(O)C3CC3)cc(-c3cc(F)c(CO)c(F)c3)c12` (centres unmarked) [Example 5, {4-Amino-5-[3,5-difluoro-4-(hydroxymethyl)phenyl]pyrrolo[2,1-f][1,2,4]triazin-7-yl}(cyclopropyl)methanol], the IC50 was 290 nM in assay [1] and 1.3 nM in assay [2].

As for `Nc1ncnn2c1c(-c1cc(F)c(CO)c(F)c1)cc2[C@H]1CC[C@H](O)CC1` [Example 7, trans-4-[4-Amino-5-[3,5-difluoro-4-(hydroxymethyl)phenyl]pyrrolo[2,1-f][1,2,4]triazin-7-yl]-cyclohexanol], the IC50 in assay [1] came out at 140 nM; in assay [2], 2 nM.

`Nc1ncnn2c([C@@H]3CCCNC3)cc(-c3cc(F)c(CO)c(F)c3)c12` [Example 11, (4-{4-Amino-7-[(3R)-piperidin-3-yl]pyrrolo[2,1-f][1,2,4]triazin-5-yl}-2,6-difluorophenyl)methanol]: the IC50 is 180 nM in assay [1] and 1.9 nM in assay [2].

`Nc1ncnn2c(CCCO)cc(-c3ccc(CO)cc3)c12` [Example 3, 3-{4-Amino-5-[4-(hydroxymethyl)phenyl]pyrrolo[2,1-f][1,2,4]triazin-7-yl}propan-1-ol]: the IC50 in assay [1] was determined as 120 nM; in assay [2], 4 nM.

One may read the IC50 as the midpoint of a concentration-inhibition curve.
